# Measurements: publication PMC9694544, “Conteltinib (CT-707) in patients with advanced ALK-positive non-small cell lung cancer: a multicenter, open-label, first-in-human phase 1 study” (BMC Medicine, 2022)
# System: patients with ALK-positive NSCLC
# Assay: Phase 1 safety assessment (TRAEs by CTCAE 4.03, DLT, MTD, RP2D)
# Format: in vivo, human
# Method: In the dose-escalation phase, the dose was escalated sequentially from a low to a high level with a 3 + 3 dose-escalation scheme based on the modified Fibonacci method. The starting dose for conteltinib was 50 mg orally quaque die (QD). Dose escalation proceeded to the next six cohorts of 100 mg, 200 mg, 300 mg, 450 mg, 600 mg, and 800 mg QD. For each dose, there was a PK lead-in phase where a single dose was given 7 days before cycle 1 day 1. Then, each dose was taken continuously in a 28-day cycle. The first cycle was for dose-limiting toxicity (DLT) investigation. When one of three patients experienced a DLT in a dose cohort, three additional patients were enrolled in the same dose cohort to assess the dose level in a total of six patients. All patients received conteltinib until disease progression, unacceptable toxicity, or withdrawal of consent. Patients received follow-up safety assessments for 30 days (±7 days) after the last conteltinib dose.
# In the dose-expansion phase, each dose was taken continuously in a 28-day cycle. At the end of each cycle, a safety evaluation was conducted. If patients met the criteria to enter the next cycle, treatment with conteltinib was continued for subsequent cycles. All patients received conteltinib until disease progression, unacceptable toxicity, or withdrawal of consent. Patients received follow-up safety assessments for 30 days (±7 days) after the last dose of conteltinib.
# The safety of conteltinib was assessed in safety set (SS) which was based on the National Cancer Institute Common Terminology Criteria for Adverse Events (CTCAE) version 4.03, laboratory tests, vital signs, ECG, and clinical observations. […] Adverse events (AEs) were judged to be treatment-related or not by investigators.
# DLTs were AEs occurring in the first cycle of treatment (28 days) that were attributed to conteltinib, and the criteria were grade 4 neutropenia lasting ≥ 7 days, febrile neutropenia, grade 3 thrombocytopenia, grade 3 non-hematologic toxicity, and any conteltinib-related toxicity resulting in treatment delay > 2 weeks or discontinuation of conteltinib treatment at the assigned dose level. Besides, grade 3 nausea, vomiting, or diarrhea for ≥ 3 days or grade 4 nausea, vomiting, or diarrhea of any duration was considered as a DLT. The MTD was defined as the dose of conteltinib that would be closest to but not higher than a 33% probability of a DLT.
compound,measurement,setting,value
COc1cc(N2CCC(N3CCN(C)CC3)CC2)ccc1Nc1nc2c(c(Nc3ccccc3S(=O)(=O)NC(C)C)n1)CCN2 [Conteltinib],TRAE Hypercholesterolemia,"450 mg QD (n=14), Grade 1–2",1 (7.1) n (%)
same,TRAE Hyperglycemia,"450 mg QD (n=14), Grade 1–2",1 (7.1) n (%)
same,TRAE Hypertriglyceridemia,"450 mg QD (n=14), Grade 1–2",2 (14.3) n (%)
same,TRAE Hyperuricemia,"450 mg QD (n=14), Grade 1–2",3 (21.4) n (%)
same,TRAE Hypoalbuminemia,"450 mg QD (n=14), Grade 1–2",2 (14.3) n (%)
same,TRAE Nausea,"450 mg QD (n=14), Grade 1–2",6 (42.9) n (%)
same,TRAE Proteinuria,"450 mg QD (n=14), Grade 1–2",1 (7.1) n (%)
same,TRAE Serum creatinine elevated,"450 mg QD (n=14), Grade 1–2",10 (71.4) n (%)
same,TRAE Vomiting,"450 mg QD (n=14), Grade 1–2",6 (42.9) n (%)
same,TRAE Weight loss,"450 mg QD (n=14), Grade 1–2",3 (21.4) n (%)
same,TRAE γ-GGT elevated,"450 mg QD (n=14), Grade 1–2",3 (21.4) n (%)
same,Patients with any TRAE,"450 mg QD (n=14), Grade ≥ 3",3 (21.4) n (%)
same,TRAE ALT elevated,"450 mg QD (n=14), Grade ≥ 3",0 (0.0) n (%)
same,TRAE AST elevated,"450 mg QD (n=14), Grade ≥ 3",0 (0.0) n (%)
same,TRAE Abdominal pain,"450 mg QD (n=14), Grade ≥ 3",0 (0.0) n (%)
same,TRAE Abdominal pain upper,"450 mg QD (n=14), Grade ≥ 3",0 (0.0) n (%)
same,TRAE Appetite decreased,"450 mg QD (n=14), Grade ≥ 3",0 (0.0) n (%)
same,TRAE Conjugated bilirubin elevated,"450 mg QD (n=14), Grade ≥ 3",0 (0.0) n (%)
same,TRAE Diarrhea,"450 mg QD (n=14), Grade ≥ 3",0 (0.0) n (%)
same,TRAE Hypercholesterolemia,"450 mg QD (n=14), Grade ≥ 3",0 (0.0) n (%)
same,TRAE Hyperglycemia,"450 mg QD (n=14), Grade ≥ 3",0 (0.0) n (%)
same,TRAE Hypertriglyceridemia,"450 mg QD (n=14), Grade ≥ 3",0 (0.0) n (%)
same,TRAE Hyperuricemia,"450 mg QD (n=14), Grade ≥ 3",0 (0.0) n (%)
same,TRAE Hypoalbuminemia,"450 mg QD (n=14), Grade ≥ 3",0 (0.0) n (%)
same,TRAE Nausea,"450 mg QD (n=14), Grade ≥ 3",0 (0.0) n (%)
same,TRAE Proteinuria,"450 mg QD (n=14), Grade ≥ 3",0 (0.0) n (%)
same,TRAE Serum creatinine elevated,"450 mg QD (n=14), Grade ≥ 3",0 (0.0) n (%)
same,TRAE Vomiting,"450 mg QD (n=14), Grade ≥ 3",0 (0.0) n (%)
same,TRAE Weight loss,"450 mg QD (n=14), Grade ≥ 3",0 (0.0) n (%)
same,TRAE γ-GGT elevated,"450 mg QD (n=14), Grade ≥ 3",3 (21.4) n (%)
same,Patients with any TRAE,"600 mg QD (n=18), Grade 1–2",18 (100) n (%)
same,TRAE ALT elevated,"600 mg QD (n=18), Grade 1–2",7 (38.9) n (%)
same,TRAE AST elevated,"600 mg QD (n=18), Grade 1–2",8 (44.4) n (%)
same,TRAE Abdominal pain,"600 mg QD (n=18), Grade 1–2",7 (38.9) n (%)
same,TRAE Abdominal pain upper,"600 mg QD (n=18), Grade 1–2",2 (11.1) n (%)
same,TRAE Appetite decreased,"600 mg QD (n=18), Grade 1–2",7 (38.9) n (%)
same,TRAE Conjugated bilirubin elevated,"600 mg QD (n=18), Grade 1–2",2 (11.1) n (%)
same,TRAE Diarrhea,"600 mg QD (n=18), Grade 1–2",16 (88.9) n (%)
same,TRAE Hypercholesterolemia,"600 mg QD (n=18), Grade 1–2",4 (22.2) n (%)
same,TRAE Hyperglycemia,"600 mg QD (n=18), Grade 1–2",6 (33.3) n (%)
same,TRAE Hypertriglyceridemia,"600 mg QD (n=18), Grade 1–2",8 (44.4) n (%)
same,TRAE Hyperuricemia,"600 mg QD (n=18), Grade 1–2",10 (55.6) n (%)
same,TRAE Hypoalbuminemia,"600 mg QD (n=18), Grade 1–2",3 (16.7) n (%)
same,TRAE Nausea,"600 mg QD (n=18), Grade 1–2",9 (50.0) n (%)
same,TRAE Proteinuria,"600 mg QD (n=18), Grade 1–2",8 (44.4) n (%)
same,TRAE Serum creatinine elevated,"600 mg QD (n=18), Grade 1–2",8 (44.4) n (%)
same,TRAE Vomiting,"600 mg QD (n=18), Grade 1–2",11 (61.1) n (%)
same,TRAE Weight loss,"600 mg QD (n=18), Grade 1–2",8 (44.4) n (%)
same,TRAE γ-GGT elevated,"600 mg QD (n=18), Grade 1–2",8 (44.4) n (%)
same,Patients with any TRAE,"600 mg QD (n=18), Grade ≥ 3",5 (27.8) n (%)
same,TRAE ALT elevated,"600 mg QD (n=18), Grade ≥ 3",0 (0.0) n (%)
same,TRAE AST elevated,"600 mg QD (n=18), Grade ≥ 3",0 (0.0) n (%)
same,TRAE Abdominal pain,"600 mg QD (n=18), Grade ≥ 3",0 (0.0) n (%)
same,TRAE Abdominal pain upper,"600 mg QD (n=18), Grade ≥ 3",0 (0.0) n (%)
same,TRAE Appetite decreased,"600 mg QD (n=18), Grade ≥ 3",0 (0.0) n (%)
same,TRAE Conjugated bilirubin elevated,"600 mg QD (n=18), Grade ≥ 3",0 (0.0) n (%)
same,TRAE Diarrhea,"600 mg QD (n=18), Grade ≥ 3",2 (11.1) n (%)
same,TRAE Hypercholesterolemia,"600 mg QD (n=18), Grade ≥ 3",0 (0.0) n (%)
same,TRAE Hyperglycemia,"600 mg QD (n=18), Grade ≥ 3",0 (0.0) n (%)
same,TRAE Hypertriglyceridemia,"600 mg QD (n=18), Grade ≥ 3",0 (0.0) n (%)
same,TRAE Hyperuricemia,"600 mg QD (n=18), Grade ≥ 3",0 (0.0) n (%)
same,TRAE Hypoalbuminemia,"600 mg QD (n=18), Grade ≥ 3",0 (0.0) n (%)
same,TRAE Nausea,"600 mg QD (n=18), Grade ≥ 3",0 (0.0) n (%)
same,TRAE Proteinuria,"600 mg QD (n=18), Grade ≥ 3",0 (0.0) n (%)
same,TRAE Serum creatinine elevated,"600 mg QD (n=18), Grade ≥ 3",1 (5.6) n (%)
same,TRAE Vomiting,"600 mg QD (n=18), Grade ≥ 3",0 (0.0) n (%)
same,TRAE Weight loss,"600 mg QD (n=18), Grade ≥ 3",0 (0.0) n (%)
same,TRAE γ-GGT elevated,"600 mg QD (n=18), Grade ≥ 3",1 (5.6) n (%)
same,DLT events,"600 mg QD, cycle 1, dose-escalation phase, grade 3 serum creatinine elevated",One
same,Patients with any TRAE,"800 mg QD (n=4), Grade 1–2",3 (75.0) n (%)
same,TRAE ALT elevated,"800 mg QD (n=4), Grade 1–2",0 (0.0) n (%)
same,TRAE AST elevated,"800 mg QD (n=4), Grade 1–2",1 (25.0) n (%)
same,TRAE Abdominal pain,"800 mg QD (n=4), Grade 1–2",3 (75.0) n (%)
same,TRAE Abdominal pain upper,"800 mg QD (n=4), Grade 1–2",0 (0.0) n (%)
same,TRAE Appetite decreased,"800 mg QD (n=4), Grade 1–2",1 (25.0) n (%)
same,TRAE Conjugated bilirubin elevated,"800 mg QD (n=4), Grade 1–2",0 (0.0) n (%)
same,TRAE Diarrhea,"800 mg QD (n=4), Grade 1–2",3 (75.0) n (%)
same,TRAE Hypercholesterolemia,"800 mg QD (n=4), Grade 1–2",1 (25.0) n (%)
same,TRAE Hyperglycemia,"800 mg QD (n=4), Grade 1–2",1 (25.0) n (%)
same,TRAE Hypertriglyceridemia,"800 mg QD (n=4), Grade 1–2",2 (50.0) n (%)
same,TRAE Hyperuricemia,"800 mg QD (n=4), Grade 1–2",3 (75.0) n (%)
same,TRAE Hypoalbuminemia,"800 mg QD (n=4), Grade 1–2",1 (25.0) n (%)
same,TRAE Nausea,"800 mg QD (n=4), Grade 1–2",1 (25.0) n (%)
same,TRAE Proteinuria,"800 mg QD (n=4), Grade 1–2",2 (50.0) n (%)
same,TRAE Serum creatinine elevated,"800 mg QD (n=4), Grade 1–2",2 (50.0) n (%)
same,TRAE Vomiting,"800 mg QD (n=4), Grade 1–2",2 (50.0) n (%)
same,TRAE Weight loss,"800 mg QD (n=4), Grade 1–2",2 (50.0) n (%)
same,TRAE γ-GGT elevated,"800 mg QD (n=4), Grade 1–2",2 (50.0) n (%)
same,Patients with any TRAE,"800 mg QD (n=4), Grade ≥ 3",0 (0.0) n (%)
same,TRAE ALT elevated,"800 mg QD (n=4), Grade ≥ 3",0 (0.0) n (%)
same,TRAE AST elevated,"800 mg QD (n=4), Grade ≥ 3",0 (0.0) n (%)
same,TRAE Abdominal pain,"800 mg QD (n=4), Grade ≥ 3",0 (0.0) n (%)
same,TRAE Abdominal pain upper,"800 mg QD (n=4), Grade ≥ 3",0 (0.0) n (%)
same,TRAE Appetite decreased,"800 mg QD (n=4), Grade ≥ 3",0 (0.0) n (%)
same,TRAE Conjugated bilirubin elevated,"800 mg QD (n=4), Grade ≥ 3",0 (0.0) n (%)
same,TRAE Diarrhea,"800 mg QD (n=4), Grade ≥ 3",0 (0.0) n (%)
same,TRAE Hypercholesterolemia,"800 mg QD (n=4), Grade ≥ 3",0 (0.0) n (%)
same,TRAE Hyperglycemia,"800 mg QD (n=4), Grade ≥ 3",0 (0.0) n (%)
